In patent publication US6524800B2, “Exploiting genomics in the search for new drugs” (Affymetrix, Inc., priority 1997, dated 2003):
Read-outs that look alike come from different tables or passages of the source.

Assays:
[1] = tested on: human lung fibroblast cells; conditions: cited from earlier work
cdc2-cyclin B = assay: purified kinase phosphorylation assay, cdc2-cyclin B; format: biochemical, Starfish
From the text: (§1) To examine the effects of a range of diverse substituents on the purine ring, we synthesized combinatorial libraries in which the 2, 6, and 9 positions could be varied starting with a 2-flouro-6-chloropurine framework. (FIG. 1A) (2,3). Substitution chemistry was used to install amines at the 2 and 6 positions, and a Mitsunobu reaction (4,5) was used to alkylate the N9 position of the purine core. The subsitution chemistry allows introduction of primary and secondary amines bearing a wide range of functional groups, whereas the Mitsunobu reaction tolerates primary and secondary alcohols lacking additional acidic hydrogens. Newly appended groups can be modified combinatorially in subsequent steps with a variety of chemistries including acylation, reductive amination, and Suzuki coupling reactions (6), During library synthesis, one position is held invariant to allow attachment to the solid support. Libraries are synthesized in a spatially separated format with either a pin apparatus (7) or polystyrene resin and screened for kinase inhibitors with a 96-well, solution-phase phosphorylation assay.
9. Starfish is the major source for cdc2-cyclin B kinase.

Cdc28p = target: T1, Cdc28p (Saccharomyces cerevisiae, UniProt P00546); assay: kinase assay in immunoprecipitates, Cdc28p; format: biochemical, yeast; conditions: for inhibition of Cdc28p (in words): immunoprecipitates
T1 construct: made in house

Pho85p = target: T2, Pho85p (Saccharomyces cerevisiae, UniProt P17157); assay: kinase assay in immunoprecipitates, Pho85p; format: biochemical, yeast; conditions: for inhibition of Pho85p (in words): immunoprecipitates
T2 construct: made in house

Kin28p = target: T3, Kin28p (Saccharomyces cerevisiae, UniProt P06242); assay: kinase assay in immunoprecipitates, Kin28p; format: biochemical; conditions: immunoprecipitated yeast kinase
T3 construct: made in house

Srb10 = target: T4, Srb10 (Saccharomyces cerevisiae, UniProt P39073); assay: kinase assay in immunoprecipitates, Srb10; format: biochemical; conditions: immunoprecipitated yeast kinase
T4 construct: made in house

Cak1p = target: T5, Cak1p (Saccharomyces cerevisiae, UniProt P43568); assay: kinase assay in immunoprecipitates, Cak1p; format: biochemical; conditions: immunoprecipitated yeast kinase
T5 construct: made in house

[2] = tested on: drug-sensitized yeast strain; assay: yeast growth inhibition; format: cell-based; conditions: Saccharomyces cerevisiae; strain with drug-sensitizing deletions (erg6, pdr5, snq2)
[3] = tested on: mRNA levels of nearly all yeast genes; assay: transcript profiling with high-density oligonucleotide expression arrays; format: cell-based, S. cerevisiae; conditions: for number of genes with greater than twofold change in transcript level: more than 6200 genes monitored; for YCRX13W SOL2 transcript INCREASE: FLA UNIQUE
Procedure: In addition to measuring the inhibitory effects of purine derivatives in kinase assays and assays of cell growth, their effects on the mRNA levels of nearly all yeast genes were determined with high-density oligonucleotide expression arrays (17, 18). These arrays (19, 20) make it possible to measure quantitatively and in parallel mRNA levels for a very large number of genes after any chemical, environmental, or genetic perturbation.
Yeast cultures were grown to late logarithmic phase (15), treated with 25 μM concentrations of the inhibitors for 2 hours, after which cellular polyadenylated mRNA was isolated and converted to biotin-labeled complementary RNA (cRNA) (17, 18). The labeled cRNA was then hybridized to a set of four arrays containing more than 260,000 25-nucleotide oligomers (20).
15. […] Three cultures [110 ml, in yeast extract, peptone, and dextrose (YPD)] were inoculated with single colonies of YRP1 (MAT, erg6::LEU2, pdr5::TRP1, snq2::HIS6) and grown at 30° C. with constant agitation in a water bath incubator. When the cell density reached an optical density (OD) of 0.9 (at a wavelength of 600 nm), 27.5 μl of a 100 mM dimethyl sulfoxide (DMSO) stock solution of 52 or flavopiridol or DMSO alone was added. After 2 hours the cells were harvested by centrifugation and flash frozen with liquid nitrogen. For the temperature-sensitive cdc28 mutants, three cultures (75 ml, YPD) of AFS 199 (cdc28-13), AA104 (cdc28-4), and their isogenic background strain AFS34 (MATa, ade2-1, his3-11, leu2-3, trp1-1, ura3) were grown from single colonies to an OD of 0.9 (600 nm) and harvested as described. Frozen cells were stored at […]

yeast cells = assay: yeast arrest morphology and FACS; format: cell-based
From the text: 16. The diminished growth inhibitory activity of compound 52Me is unlikely to result from poorer bioavailability because a similar N6 methylation is observed to increase the in vivo potency of a related series of purine-based inhibitors. The residual growth inhibitory activity of 52Me likely reflects activity against other cellular targets.

[4] = tested on: four yeast CDKs (Cdc28p, Kin28p, Pho85p, and Srb10p) and the related kinase Cak1p; assay: yeast kinase panel in immunoprecipitates; format: biochemical
cdk2-cyclin A = cdk2-cyclin A (Homo sapiens, UniProt P24941); assay: purified kinase assay, cdk2-cyclin A; format: biochemical
From the text: as §1

cdk2-cyclin E = cdk2-cyclin E (Homo sapiens, UniProt P24941); assay: purified kinase assay, cdk2-cyclin E; format: biochemical
From the text: as §1

cdk4-cyclin D1 = cdk4-cyclin D1 (Homo sapiens, UniProt P11802); assay: purified kinase assay, cdk4-cyclin D1; format: biochemical
From the text: as §1

cdk5-p35 = cdk5-p35 (Homo sapiens, UniProt Q00535); assay: purified kinase assay, cdk5-p35; format: biochemical
From the text: as §1

erk1 = erk1 (Homo sapiens, UniProt P27361); assay: purified kinase assay, erk1; format: biochemical
From the text: as §1

[5] = target: c-jun NH2-terminal kinase; assay: purified kinase assay, c-jun NH2-terminal kinase; format: biochemical, human
From the text: as §1

Protein kinase C [6] = target: Protein kinase C (Homo sapiens, UniProt P17252); assay: purified kinase assay, Protein kinase C (Table 1 r15); format: biochemical; conditions: Table 1 r15, isoform symbol not given
From the text: as §1

Protein kinase C1 = Protein kinase C1 (Homo sapiens, UniProt P05771); assay: purified kinase assay, Protein kinase C1 (Table 1 r16); format: biochemical
From the text: as §1

Protein kinase C2 = Protein kinase C2 (Homo sapiens, UniProt P05771); assay: purified kinase assay, Protein kinase C2 (Table 1 r17); format: biochemical
From the text: as §1

Protein kinase C [7] = target: Protein kinase C (Homo sapiens, UniProt P05129); assay: purified kinase assay, Protein kinase C (Table 1 r18); format: biochemical; conditions: Table 1 r18, isoform symbol not given
From the text: as §1

Protein kinase C [8] = target: Protein kinase C (Homo sapiens, UniProt Q05655); assay: purified kinase assay, Protein kinase C (Table 1 r19); format: biochemical; conditions: Table 1 r19, isoform symbol not given
From the text: as §1

Protein kinase C [9] = target: Protein kinase C (Homo sapiens, UniProt Q02156); assay: purified kinase assay, Protein kinase C (Table 1 r20); format: biochemical; conditions: Table 1 r20, isoform symbol not given
From the text: as §1

Protein kinase C [10] = target: Protein kinase C (Homo sapiens, UniProt P24723); assay: purified kinase assay, Protein kinase C (Table 1 r21); format: biochemical; conditions: Table 1 r21, isoform symbol not given
From the text: as §1

Protein kinase C [11] = target: Protein kinase C (Homo sapiens, UniProt Q05513); assay: purified kinase assay, Protein kinase C (Table 1 r22); format: biochemical; conditions: Table 1 r22, isoform symbol not given
From the text: as §1

[12] = target: cAMP-dependent protein kinase (Homo sapiens, UniProt P17612); assay: purified kinase assay, cAMP-dependent protein kinase; format: biochemical
From the text: as §1

[13] = target: cGMP-dependent protein kinase (Homo sapiens, UniProt Q13976); assay: purified kinase assay, cGMP-dependent protein kinase; format: biochemical
From the text: as §1

Casein kinase 1 = assay: purified kinase assay, Casein kinase 1; format: biochemical, human
From the text: as §1

GSK3- = GSK3- (Homo sapiens, UniProt P49841); assay: purified kinase assay, GSK3-; format: biochemical
From the text: as §1

[14] = target: Insulin-receptor tyrosine kinase (Homo sapiens, UniProt P06213); assay: purified kinase assay, Insulin-receptor tyrosine kinase; format: biochemical
From the text: as §1

[15] = tested on: NCI panel of 60 human tumor cell lines; assay: NCI panel growth inhibition; format: cell-based
[16] = tested on: KM12 colon cancer cell line; assay: NCI panel growth inhibition, KM12; format: cell-based, human
[17] = tested on: NCI-H522 non-small cell lung cancer cell line; assay: NCI panel growth inhibition, NCI-H522; format: cell-based, human
[18] = immunoprecipitated yeast kinase
[19] = yeast, inhibitor versus untreated

T2 sequence (P17157 whole entry): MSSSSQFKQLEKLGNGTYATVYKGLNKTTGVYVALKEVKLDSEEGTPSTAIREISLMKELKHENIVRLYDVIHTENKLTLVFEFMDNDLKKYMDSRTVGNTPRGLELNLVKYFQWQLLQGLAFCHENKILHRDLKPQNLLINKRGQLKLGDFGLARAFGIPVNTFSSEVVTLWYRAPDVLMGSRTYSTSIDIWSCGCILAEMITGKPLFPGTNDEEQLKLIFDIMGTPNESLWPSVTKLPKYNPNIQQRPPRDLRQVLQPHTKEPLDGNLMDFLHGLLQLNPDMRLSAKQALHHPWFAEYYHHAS
T1 sequence (P00546 whole entry): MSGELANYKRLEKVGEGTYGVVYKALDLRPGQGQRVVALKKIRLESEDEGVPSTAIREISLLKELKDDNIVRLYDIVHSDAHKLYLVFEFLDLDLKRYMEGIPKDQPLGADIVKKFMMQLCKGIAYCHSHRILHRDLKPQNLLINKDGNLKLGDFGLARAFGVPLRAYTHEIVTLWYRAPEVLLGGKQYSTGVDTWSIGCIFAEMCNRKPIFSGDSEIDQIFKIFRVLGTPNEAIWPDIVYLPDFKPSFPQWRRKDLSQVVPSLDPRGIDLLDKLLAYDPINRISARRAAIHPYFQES
Insulin-receptor tyrosine kinase, sequence (P06213 28-1382): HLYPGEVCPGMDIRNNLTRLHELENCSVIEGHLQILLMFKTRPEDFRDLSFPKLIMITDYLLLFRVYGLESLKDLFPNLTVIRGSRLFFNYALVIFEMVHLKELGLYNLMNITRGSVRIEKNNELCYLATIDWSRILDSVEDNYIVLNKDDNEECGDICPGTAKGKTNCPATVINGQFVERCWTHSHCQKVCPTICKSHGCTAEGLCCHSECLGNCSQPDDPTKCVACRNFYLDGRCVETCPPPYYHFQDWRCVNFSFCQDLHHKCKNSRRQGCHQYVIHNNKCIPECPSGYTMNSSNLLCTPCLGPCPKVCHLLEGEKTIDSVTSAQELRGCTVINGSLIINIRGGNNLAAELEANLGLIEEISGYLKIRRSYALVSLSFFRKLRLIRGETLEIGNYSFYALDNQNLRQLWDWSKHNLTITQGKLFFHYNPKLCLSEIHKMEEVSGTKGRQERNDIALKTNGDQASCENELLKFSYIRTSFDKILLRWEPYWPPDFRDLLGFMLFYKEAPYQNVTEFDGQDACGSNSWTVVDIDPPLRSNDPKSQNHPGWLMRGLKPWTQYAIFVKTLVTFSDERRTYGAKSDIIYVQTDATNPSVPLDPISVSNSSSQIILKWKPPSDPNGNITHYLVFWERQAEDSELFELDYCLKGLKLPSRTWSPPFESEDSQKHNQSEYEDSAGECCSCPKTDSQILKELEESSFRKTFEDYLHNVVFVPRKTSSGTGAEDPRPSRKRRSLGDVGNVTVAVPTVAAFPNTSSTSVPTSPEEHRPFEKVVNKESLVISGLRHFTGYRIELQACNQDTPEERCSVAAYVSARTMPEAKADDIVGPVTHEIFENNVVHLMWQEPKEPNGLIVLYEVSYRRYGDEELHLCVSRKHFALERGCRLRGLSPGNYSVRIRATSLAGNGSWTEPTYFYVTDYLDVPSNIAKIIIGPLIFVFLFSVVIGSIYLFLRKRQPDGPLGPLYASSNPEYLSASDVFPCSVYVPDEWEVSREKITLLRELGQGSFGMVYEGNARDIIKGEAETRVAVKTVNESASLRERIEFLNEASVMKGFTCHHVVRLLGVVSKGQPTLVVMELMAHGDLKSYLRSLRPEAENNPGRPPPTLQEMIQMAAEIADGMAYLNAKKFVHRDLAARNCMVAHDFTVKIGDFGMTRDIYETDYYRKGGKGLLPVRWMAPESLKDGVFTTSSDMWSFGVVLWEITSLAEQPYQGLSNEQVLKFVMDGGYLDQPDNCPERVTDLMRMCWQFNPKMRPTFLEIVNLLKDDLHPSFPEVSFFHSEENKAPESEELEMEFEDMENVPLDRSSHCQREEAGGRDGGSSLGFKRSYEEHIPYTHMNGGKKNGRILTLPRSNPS
cGMP-dependent protein kinase, sequence (Q13976 whole entry): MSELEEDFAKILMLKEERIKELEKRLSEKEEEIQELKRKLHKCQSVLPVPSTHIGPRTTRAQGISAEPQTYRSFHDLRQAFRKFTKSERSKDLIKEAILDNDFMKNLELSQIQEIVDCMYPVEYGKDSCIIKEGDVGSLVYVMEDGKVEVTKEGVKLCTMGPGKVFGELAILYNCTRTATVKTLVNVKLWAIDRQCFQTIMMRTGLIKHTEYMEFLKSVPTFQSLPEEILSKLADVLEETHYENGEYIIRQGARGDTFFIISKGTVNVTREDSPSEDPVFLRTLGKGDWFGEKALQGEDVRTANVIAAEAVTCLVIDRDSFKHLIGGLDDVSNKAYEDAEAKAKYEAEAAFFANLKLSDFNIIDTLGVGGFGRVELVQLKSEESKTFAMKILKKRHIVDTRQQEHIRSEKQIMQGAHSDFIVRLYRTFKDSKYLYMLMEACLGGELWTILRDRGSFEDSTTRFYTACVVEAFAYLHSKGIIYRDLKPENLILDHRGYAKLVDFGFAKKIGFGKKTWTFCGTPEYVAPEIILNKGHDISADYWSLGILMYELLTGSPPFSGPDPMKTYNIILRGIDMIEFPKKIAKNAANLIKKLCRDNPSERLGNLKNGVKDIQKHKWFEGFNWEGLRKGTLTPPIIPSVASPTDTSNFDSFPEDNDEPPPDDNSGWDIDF
T3 sequence (P06242 whole entry): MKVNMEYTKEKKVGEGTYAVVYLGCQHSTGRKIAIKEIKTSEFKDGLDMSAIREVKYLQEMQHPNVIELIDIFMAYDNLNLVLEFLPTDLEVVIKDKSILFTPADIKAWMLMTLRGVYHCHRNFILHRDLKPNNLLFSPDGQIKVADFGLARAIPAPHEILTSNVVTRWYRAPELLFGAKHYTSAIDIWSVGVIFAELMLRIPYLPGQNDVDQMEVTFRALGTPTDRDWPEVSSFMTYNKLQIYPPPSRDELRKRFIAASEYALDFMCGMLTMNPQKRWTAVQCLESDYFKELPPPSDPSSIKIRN
T3 sequence (P37366 whole entry partner): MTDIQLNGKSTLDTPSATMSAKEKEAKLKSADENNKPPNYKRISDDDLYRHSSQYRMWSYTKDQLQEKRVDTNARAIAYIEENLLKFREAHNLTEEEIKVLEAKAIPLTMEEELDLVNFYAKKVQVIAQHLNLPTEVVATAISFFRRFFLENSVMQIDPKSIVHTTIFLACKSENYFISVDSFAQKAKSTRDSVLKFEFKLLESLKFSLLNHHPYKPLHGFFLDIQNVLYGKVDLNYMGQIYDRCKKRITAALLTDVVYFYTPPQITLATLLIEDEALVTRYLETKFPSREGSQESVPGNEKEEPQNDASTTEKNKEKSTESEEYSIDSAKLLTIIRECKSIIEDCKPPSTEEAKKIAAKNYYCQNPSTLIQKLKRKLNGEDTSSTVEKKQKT
Protein kinase C (Homo sapiens, UniProt P24723), sequence (P24723 whole entry, canonical isoform): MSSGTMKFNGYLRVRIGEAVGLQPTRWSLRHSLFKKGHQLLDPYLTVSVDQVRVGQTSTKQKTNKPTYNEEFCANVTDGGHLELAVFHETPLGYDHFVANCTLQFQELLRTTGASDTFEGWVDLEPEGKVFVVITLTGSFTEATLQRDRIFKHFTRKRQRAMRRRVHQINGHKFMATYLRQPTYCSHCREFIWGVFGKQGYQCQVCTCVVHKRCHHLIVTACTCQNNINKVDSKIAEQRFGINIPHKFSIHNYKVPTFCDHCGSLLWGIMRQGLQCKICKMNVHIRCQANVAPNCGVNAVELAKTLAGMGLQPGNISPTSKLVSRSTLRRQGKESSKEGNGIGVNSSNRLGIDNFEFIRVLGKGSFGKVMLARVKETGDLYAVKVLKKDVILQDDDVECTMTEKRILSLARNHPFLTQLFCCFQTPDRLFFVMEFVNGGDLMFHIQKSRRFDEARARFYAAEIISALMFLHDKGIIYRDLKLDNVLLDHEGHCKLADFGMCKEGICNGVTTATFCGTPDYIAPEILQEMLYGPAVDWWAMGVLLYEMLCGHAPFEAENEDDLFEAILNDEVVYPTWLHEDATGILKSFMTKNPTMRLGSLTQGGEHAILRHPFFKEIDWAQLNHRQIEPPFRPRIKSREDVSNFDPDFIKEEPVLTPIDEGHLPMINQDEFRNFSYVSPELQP
T4 sequence (P39073 whole entry): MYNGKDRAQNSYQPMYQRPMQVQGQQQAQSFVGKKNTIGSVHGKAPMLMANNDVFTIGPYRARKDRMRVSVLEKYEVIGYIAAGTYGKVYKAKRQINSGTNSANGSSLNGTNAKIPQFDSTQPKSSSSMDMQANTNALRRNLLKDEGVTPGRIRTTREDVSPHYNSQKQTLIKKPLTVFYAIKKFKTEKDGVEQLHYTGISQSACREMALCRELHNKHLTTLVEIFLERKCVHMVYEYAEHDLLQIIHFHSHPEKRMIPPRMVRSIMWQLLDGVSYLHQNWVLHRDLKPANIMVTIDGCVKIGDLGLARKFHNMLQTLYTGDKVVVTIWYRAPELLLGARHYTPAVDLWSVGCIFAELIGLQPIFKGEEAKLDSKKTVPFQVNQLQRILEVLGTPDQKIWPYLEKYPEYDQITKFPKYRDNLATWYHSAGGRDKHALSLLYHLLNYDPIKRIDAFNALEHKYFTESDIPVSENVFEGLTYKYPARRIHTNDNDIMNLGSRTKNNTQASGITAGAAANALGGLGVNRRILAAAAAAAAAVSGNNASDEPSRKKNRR
T4 sequence (P47821 whole entry partner): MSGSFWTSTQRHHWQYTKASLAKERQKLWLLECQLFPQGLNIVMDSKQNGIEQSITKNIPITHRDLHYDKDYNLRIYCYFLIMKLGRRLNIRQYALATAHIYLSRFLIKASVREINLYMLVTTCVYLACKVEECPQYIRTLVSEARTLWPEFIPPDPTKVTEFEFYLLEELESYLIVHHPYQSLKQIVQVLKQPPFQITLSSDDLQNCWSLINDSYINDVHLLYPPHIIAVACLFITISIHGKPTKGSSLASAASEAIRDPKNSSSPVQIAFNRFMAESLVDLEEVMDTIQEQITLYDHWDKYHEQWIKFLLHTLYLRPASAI

| SMILES | inhibition of Cdc28p (in words) (Cdc28p) | inhibition of Pho85p (in words) (Pho85p) | GI50 [2] | % of transcripts with greater than twofold change ([3]; 25 μM, 2 hours) | ribosomal protein transcripts decreased at least threefold ([3]; 25 μM, 2 hours) | number of genes with greater than twofold change in transcript level ([3]; 25 μM, 2 hours) | YCRX13W SOL2 transcript INCREASE [3] | Y13R214W transcript INCREASES [3, 19] | YBL002W HTB2 transcript DECREASES [3, 19] | YBR296C transcript change (in words) [3, 19] | YGLI79 transcript change (in words) [3, 19] | YGR108W (CLB 1) transcript DECREASES [3, 19] | YKRO97W PCK1 transcript INCREASES [3, 19] | YLR178c (TFS1) transcript INCREASES [3, 19] | arrest morphology in yeast (in words) (yeast cells) | synchronization of yeast cells by FACS (in words) (yeast cells) | IC50 [5] | IC50 [12] | IC50 [13] | IC50 (Casein kinase 1) | further results |
| --- | --- | --- | --- | --- | --- | --- | --- | --- | --- | --- | --- | --- | --- | --- | --- | --- | --- | --- | --- | --- | --- |
| COc1ccc(CNc2nc(N(CCO)CCO)nc3c2ncn3C(C)C)cc1 [2-(bis-(hydroxylethyl)amino)-6-(4-methoxybenzylamino)-9-isopropylpurine] |  |  |  |  |  |  |  |  |  |  |  |  |  |  |  |  |  |  |  |  | cell cycle inhibitory activity by FACS ([1]; high concentrations): both G1-S and G2-M inhibitory activity; cell cycle inhibitory activity by FACS ([1]; lower concentrations): predominant G1-S inhibition |
| CC(C)n1cnc2c(Nc3cccc(Cl)c3)nc(NCCO)nc21 [Compound 52, 2-(2-hydroxyethylamino)-6-(3-chloroanilino)-9-isopropylpurine] | inhibited | inhibited | 30 µM | 3% | 14 | 194 | C52 - much smaller inc. (NL. 8 x at most) × | (4-4.5 × for C52 | (˜4.5 × for C52 | VERY LARGE INCREASE (15- | INCREASES C52 & FLA | (˜8 fold with C52 | ˜7-8 fold with C52 | INCREASES ˜6x | failed to cause a uniform arrest morphology | did not reveal synchronization |  |  |  |  | IC50 (cdc2-cyclin B): 0.34 µM; IC50 (Cdc28p; [18]): 7 µM; IC50 (Pho85p; [18]): 2 µM; IC50 (Kin28p): > 500 µM; IC50 (Srb10): > 500 µM; IC50 (Cak1p): > 500 µM; number of genes whose transcript levels were decreased at least threefold ([3]; 25 μM, 2 hours): ~50; YKLO71W transcript Increase ([3]; C52 UNIQUE): 7-12 × Increase (C52); YDR281 C transcript INCREASE [3, 19]: ˜4.5-5.5 × INCREASE |
| CC(C)n1cnc2c(N(C)c3cccc(Cl)c3)nc(NCCO)nc21 [Compound 52Me] |  |  | 200 µM | 0.03% |  | 2 |  |  |  |  |  |  |  |  | failed to cause a uniform arrest morphology | did not reveal synchronization |  |  |  |  | inhibition of any of the CDKs tested (in words) [4]: did not inhibit |
| CN1CC[C@H](c2c(O)cc(O)c3c(=O)cc(-c4ccccc4Cl)oc23)[C@H](O)C1 [flavopiridol, reference compound] |  |  | 7 µM | 2% | no ribosomal protein transcript levels decreased more than threefold | 132 | 7.5-10 × INCREASE | 7-8.5 × for FLA | ˜2.7 × for FLA | VERY LARGE INCREASE (15- | INCREASES C52 & FLA | ˜2.5-3 fold with FLA) | ˜4 × with FLA fold | INCREASES ˜6x | failed to cause a uniform arrest morphology |  |  |  |  |  |  |
| CC(C)[C@H](CO)Nc1nc(Nc2cccc(Cl)c2)c2ncn(C(C)C)c2n1 [purvalanol A] | inhibited | inhibited |  |  |  |  |  |  |  |  |  |  |  |  |  |  | > 1 µM | 9 µM | > 10 µM | > 3.33 µM | IC50 (cdk2-cyclin A): 0.07 µM; IC50 (cdk2-cyclin E): 0.035 µM; IC50 (cdk4-cyclin D1): 0.85 µM; IC50 (cdk5-p35): 0.075 µM; IC50 (erk1): 9 µM; IC50 (Protein kinase C [6]): > 10 µM; IC50 (Protein kinase C1): > 10 µM; IC50 (Protein kinase C2): > 10 µM; IC50 (Protein kinase C [7]): > 10 µM; IC50 (Protein kinase C [8]): > 100 µM; IC50 (Protein kinase C [9]): > 100 µM; IC50 (Protein kinase C [10]): > 100 µM; IC50 (Protein kinase C [11]): > 100 µM; IC50 (GSK3-): > 10 µM; IC50 [14]: 5 µM; increase in sensitivity of two cell lines out of the 60 ([15]; KM12 and NCI-H522 versus average GI50): ~20 fold; GI50 ([15]; read-out: average GI50 (50% growth inhibition), average over 60 cell lines): 2 µM; GI50 [16]: 0.076 µM; GI50 [17]: 0.347 µM |
| CC(C)[C@H](CO)Nc1nc(Nc2ccc(C(=O)O)c(Cl)c2)c2ncn(C(C)C)c2n1 [purvalanol B, 2-(1R-isopropyl-2-hydroxyethylamino)-6-(3-chloro-4-carboxyanilino)-9-isopropylpurine] |  |  |  |  |  |  |  |  |  |  |  |  |  |  |  |  | > 10 µM | 3.8 µM | > 100 µM | > 3.33 µM | IC50 [14]: 2.2 µM |
